Assay results as given in PubChem BioAssay AID1963980 (Molecular Pharmacology Branch, DTP, NCI, 2024).
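Further: spheroids exposed to agents for seven days before readout.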

The compounds below were run on 475296-252-R-J1-PDC spheroid viability (assay: Anticancer human tumor 475296-252-R-J1-PDC patient-derived rectal carcinoma cell line growth inhibition [PI3K]). Details: second compound 3.16 µM; first compound 0.1 µM; hits give low values; spheroids with HUVEC and MSC.
Summary of the method: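 Tumor cells grown as multi-cell spheroids with HUVEC endothelial cells and MSC fibroblast-like stroma were treated with targeted agents combined with inavolisib, alpelisib, duvelisib or copanlisib. Doses fell in half-log steps from near clinical Cmax, else from 10 microM. Viability was measured.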
Work on `CC(Cn1ccc(-c2ccc(C#N)c(Cl)c2)n1)NC(=O)c1cc(C(C)O)[nH]n1` (stereo unspecified) + Cc1nc(NC(=O)N2CCCC2C(N)=O)sc1-c1ccnc(C(C)(C)C(F)(F)F)c1 yielded a viability, T/C of 96.1%. Work on `Cn1ncc(Cl)c1-c1cc(C(=O)NC(CN)Cc2cccc(F)c2)sc1Cl` (stereo unspecified) + Cc1nc(NC(=O)N2CCCC2C(N)=O)sc1-c1ccnc(C(C)(C)C(F)(F)F)c1 yielded a viability, T/C of 78.8%. Compound `Cn1nccc1Nc1nccc(-c2ccn(C(CO)c3ccc(Cl)c(F)c3)c(=O)c2)n1` (stereo unspecified) + Cc1nc(NC(=O)N2CCCC2C(N)=O)sc1-c1ccnc(C(C)(C)C(F)(F)F)c1 has a viability, T/C of 89.3%.

Same assay, conditions: second compound 3.16 µM; first compound 0.316 µM; hits give low values; spheroids with HUVEC and MSC
`C#Cc1c(F)ccc2cc(O)cc(-c3ncc4c(N5CC6CCC(C5)N6)nc(OCC56CCCN5CC(F)C6)nc4c3F)c12` (stereo unspecified) + Cc1nc(NC(=O)N2CCCC2C(N)=O)sc1-c1ccnc(C(C)(C)C(F)(F)F)c1 was tested, and the viability, T/C was 65.1%. For `C=CC(=O)N1CCN(c2nc(=O)n(-c3c(C)ccnc3C(C)C)c3nc(-c4c(O)cccc4F)c(F)cc23)C(C)C1` (stereo unspecified) + Cc1nc(NC(=O)N2CCCC2C(N)=O)sc1-c1ccnc(C(C)(C)C(F)(F)F)c1, the viability, T/C was 95.2%. With `CC(Cn1ccc(-c2ccc(C#N)c(Cl)c2)n1)NC(=O)c1cc(C(C)O)[nH]n1` (stereo unspecified) + Cc1nc(NC(=O)N2CCCC2C(N)=O)sc1-c1ccnc(C(C)(C)C(F)(F)F)c1 the viability, T/C was 103%. With `Cn1ncc(Cl)c1-c1cc(C(=O)NC(CN)Cc2cccc(F)c2)sc1Cl` (stereo unspecified) + Cc1nc(NC(=O)N2CCCC2C(N)=O)sc1-c1ccnc(C(C)(C)C(F)(F)F)c1 the viability, T/C was 84.2%. In the case of `Cn1nccc1Nc1nccc(-c2ccn(C(CO)c3ccc(Cl)c(F)c3)c(=O)c2)n1` (stereo unspecified) + Cc1nc(NC(=O)N2CCCC2C(N)=O)sc1-c1ccnc(C(C)(C)C(F)(F)F)c1, the viability, T/C was 79.8%.

Same assay, conditions: second compound 3.16 µM; first compound 1 µM; hits give low values; spheroids with HUVEC and MSC
In the case of `C#Cc1c(F)ccc2cc(O)cc(-c3ncc4c(N5CC6CCC(C5)N6)nc(OCC56CCCN5CC(F)C6)nc4c3F)c12` (stereo unspecified) + Cc1nc(NC(=O)N2CCCC2C(N)=O)sc1-c1ccnc(C(C)(C)C(F)(F)F)c1, the viability, T/C was 44.8%. `C=CC(=O)N1CCN(c2nc(=O)n(-c3c(C)ccnc3C(C)C)c3nc(-c4c(O)cccc4F)c(F)cc23)C(C)C1` (stereo unspecified) + Cc1nc(NC(=O)N2CCCC2C(N)=O)sc1-c1ccnc(C(C)(C)C(F)(F)F)c1 gave a viability, T/C of 87.2%. `CC(Cn1ccc(-c2ccc(C#N)c(Cl)c2)n1)NC(=O)c1cc(C(C)O)[nH]n1` (stereo unspecified) + Cc1nc(NC(=O)N2CCCC2C(N)=O)sc1-c1ccnc(C(C)(C)C(F)(F)F)c1 gave a viability, T/C of 105%. For `Cn1ncc(Cl)c1-c1cc(C(=O)NC(CN)Cc2cccc(F)c2)sc1Cl` (stereo unspecified) + Cc1nc(NC(=O)N2CCCC2C(N)=O)sc1-c1ccnc(C(C)(C)C(F)(F)F)c1, the viability, T/C was 67%. Work on `Cn1nccc1Nc1nccc(-c2ccn(C(CO)c3ccc(Cl)c(F)c3)c(=O)c2)n1` (stereo unspecified) + Cc1nc(NC(=O)N2CCCC2C(N)=O)sc1-c1ccnc(C(C)(C)C(F)(F)F)c1 yielded a viability, T/C of 79.1%.

Same assay, conditions: second compound 3.16 µM; first compound 3.16 µM; hits give low values; spheroids with HUVEC and MSC
With `C#Cc1c(F)ccc2cc(O)cc(-c3ncc4c(N5CC6CCC(C5)N6)nc(OCC56CCCN5CC(F)C6)nc4c3F)c12` (stereo unspecified) + Cc1nc(NC(=O)N2CCCC2C(N)=O)sc1-c1ccnc(C(C)(C)C(F)(F)F)c1 the viability, T/C was 21.7%. Compound `C=CC(=O)N1CCN(c2nc(=O)n(-c3c(C)ccnc3C(C)C)c3nc(-c4c(O)cccc4F)c(F)cc23)C(C)C1` (stereo unspecified) + Cc1nc(NC(=O)N2CCCC2C(N)=O)sc1-c1ccnc(C(C)(C)C(F)(F)F)c1 has a viability, T/C of 92.9%. In the case of `CC(Cn1ccc(-c2ccc(C#N)c(Cl)c2)n1)NC(=O)c1cc(C(C)O)[nH]n1` (stereo unspecified) + Cc1nc(NC(=O)N2CCCC2C(N)=O)sc1-c1ccnc(C(C)(C)C(F)(F)F)c1, the viability, T/C was 105%. Work on `Cn1ncc(Cl)c1-c1cc(C(=O)NC(CN)Cc2cccc(F)c2)sc1Cl` (stereo unspecified) + Cc1nc(NC(=O)N2CCCC2C(N)=O)sc1-c1ccnc(C(C)(C)C(F)(F)F)c1 yielded a viability, T/C of 61.5%. `Cn1nccc1Nc1nccc(-c2ccn(C(CO)c3ccc(Cl)c(F)c3)c(=O)c2)n1` (stereo unspecified) + Cc1nc(NC(=O)N2CCCC2C(N)=O)sc1-c1ccnc(C(C)(C)C(F)(F)F)c1 gave a viability, T/C of 58.8%.

Same assay, conditions: second compound 3.16 µM; first compound 10 µM; hits give low values; spheroids with HUVEC and MSC
`C#Cc1c(F)ccc2cc(O)cc(-c3ncc4c(N5CC6CCC(C5)N6)nc(OCC56CCCN5CC(F)C6)nc4c3F)c12` (stereo unspecified) + Cc1nc(NC(=O)N2CCCC2C(N)=O)sc1-c1ccnc(C(C)(C)C(F)(F)F)c1 was tested, and the viability, T/C was 10.4%. Compound `C=CC(=O)N1CCN(c2nc(=O)n(-c3c(C)ccnc3C(C)C)c3nc(-c4c(O)cccc4F)c(F)cc23)C(C)C1` (stereo unspecified) + Cc1nc(NC(=O)N2CCCC2C(N)=O)sc1-c1ccnc(C(C)(C)C(F)(F)F)c1 has a viability, T/C of 93.8%. Compound `CC(Cn1ccc(-c2ccc(C#N)c(Cl)c2)n1)NC(=O)c1cc(C(C)O)[nH]n1` (stereo unspecified) + Cc1nc(NC(=O)N2CCCC2C(N)=O)sc1-c1ccnc(C(C)(C)C(F)(F)F)c1 has a viability, T/C of 101%. For `Cn1ncc(Cl)c1-c1cc(C(=O)NC(CN)Cc2cccc(F)c2)sc1Cl` (stereo unspecified) + Cc1nc(NC(=O)N2CCCC2C(N)=O)sc1-c1ccnc(C(C)(C)C(F)(F)F)c1, the viability, T/C was 47.2%. Work on `Cn1nccc1Nc1nccc(-c2ccn(C(CO)c3ccc(Cl)c(F)c3)c(=O)c2)n1` (stereo unspecified) + Cc1nc(NC(=O)N2CCCC2C(N)=O)sc1-c1ccnc(C(C)(C)C(F)(F)F)c1 yielded a viability, T/C of 50.7%.

Same assay, conditions: second compound 10 µM; first compound 0.0316 µM; hits give low values; spheroids with HUVEC and MSC
Work on `C#Cc1c(F)ccc2cc(O)cc(-c3ncc4c(N5CC6CCC(C5)N6)nc(OCC56CCCN5CC(F)C6)nc4c3F)c12` (stereo unspecified) + Cc1nc(NC(=O)N2CCCC2C(N)=O)sc1-c1ccnc(C(C)(C)C(F)(F)F)c1 yielded a viability, T/C of 73.4%. Compound `C=CC(=O)N1CCN(c2nc(=O)n(-c3c(C)ccnc3C(C)C)c3nc(-c4c(O)cccc4F)c(F)cc23)C(C)C1` (stereo unspecified) + Cc1nc(NC(=O)N2CCCC2C(N)=O)sc1-c1ccnc(C(C)(C)C(F)(F)F)c1 has a viability, T/C of 94.6%. Work on `CC(Cn1ccc(-c2ccc(C#N)c(Cl)c2)n1)NC(=O)c1cc(C(C)O)[nH]n1` (stereo unspecified) + Cc1nc(NC(=O)N2CCCC2C(N)=O)sc1-c1ccnc(C(C)(C)C(F)(F)F)c1 yielded a viability, T/C of 90.2%.
